How the values were obtained:
Format in all cases: ADME, tissue-based
Brain [1] = assay: Drug uptake in wild-type mouse brain by Positron emission tomography; details: in vivo
Brain [2] = assay: Drug uptake in P-gp/Bcrp knockout mouse brain after 60 mins; details: in vivo, 1 h
Brain [3] = assay: Drug uptake in wild-type mouse brain after 60 mins; details: in vivo, 1 h
Brain [4] = assay: Drug uptake in P-gp/Bcrp knockout mouse brain by Positron emission tomography; details: in vivo

`CNC(=O)c1cc(Oc2ccc(N[11C](=O)Nc3ccc(Cl)c(C(F)(F)F)c3)cc2)ccn1` [[11C]-SORAFENIB] was tested, and the Drug uptake (Brain [1]) was “Active”, the SUV (Brain [2]) was 6.72 and the SUV (Brain [3]) was 18.83. For the same molecule, the Drug uptake (Brain [4]) was “Active”.

From ChEMBL document CHEMBL1759848, “[11C]sorafenib: radiosynthesis and preliminary PET study of brain uptake in P-gp/Bcrp knockout mice” (Bioorg Med Chem Lett, 2011)
